Our source for the binding values is article PMC12603272 (2025).

This test relates to AT-rich palindromic dodecanucleotide dsDNA (DNA, duplex) CGCAAATTTGCG
Description: photoluminescence titration. Conditions: dsDNA stock 10 mM Tris, 0.1 mM EDTA pH 8.0, 25 °C.

With `Cn1ccc(=Nc2ccc(NC(=O)c3ccc(N=c4ccn(C)c5ccc([N+](=O)[O-])cc45)cc3)cc2)cc1`, for the setting “dsDNA (0-10 µM) into 10 µM compound in D2O”, the binding result is “yes”.
Turning to `CN1CCN(c2ccc3nc(-c4ccc5nc(-c6ccc(O)cc6)[nH]c5c4)[nH]c3c2)CC1`, under “dsDNA (0-8 µM) into 8 µM compound in D2O”, the binding result is “yes”.
